Like-named read-outs stand apart in the source and are kept apart here.
What was measured:
[1] = Chloride quenching (Stern-Volmer) of SPQ-C18 in contact lenses; format: physicochemical
Method: Quenching by Chloride. […] The intensities (I) and lifetimes (6) are analyzed using the Stern-Volmer equation, where F0 and τ0 are the intensities and lifetimes in the absence of chloride, and K is the quenching constant and the inverse of the [Cl^-] needed for 50% quenching. For collisional quenching, the value of F0/F and τ0/τ are typically the same. In solution, in the absence of lenses, the value of K=kq τ0 can be used to calculate the biomolecular quenching constant kq and the quenching efficiency. In the lenses, the [Cl-] may not be the same as in the bulk solution, but kq in the lenses is estimated by assuming the same concentration of chloride around the SPQ moiety in the lenses and in bulk solutions. Chloride-sensitive lenses were prepared using SPQ-C18. The quinolinium moiety in SPQ-C18 can be used for chloride sensing in tears. Its unquenched lifetime near 18.5 ns (see Table 14 and Table 15, below) which results in significant changes up to chloride concentrations of 220 mM, which is well above the physiological range. BiofinityTM and […] lenses labeled with SPQ-C18 were both found to display significant quenching at physiological concentrations of chloride near 120 mM. The emission intensities of SPQ-C18 were quenched by about 50% at this chloride concentration (FIG. 31 and FIG. 32). The emission spectra are not changed by quenching so intensity-based sensing may be different in a realworld application. […] Chloride quenching was analyzed using the Stern-Volmer equation for intensities and lifetimes (equations 7 and 8). In this analysis, we used the average lifetimes (equation 2) that is more appropriate for quenching. […] In contrast quenching of SP-PL, both intensity and lifetime, continue to decrease as the chloride concentration is increased. At the molecular level, the most interesting term is the biomolecular quenching constant kq. This value can be understood by comparison with quenching of a fluorophore in solution without any steric barriers. […] This approach for SPQ-C18 in lenses is shown in both intensities and amplitude-weighted lifetimes (FIG. 35A and FIG. 35B). […] This behavior is different from SG-PL where the binding site can be saturated at high Na^+ concentrations. In contrast, quenching of OD-MQB, both intensity and lifetime, continue to decrease as the chloride concentration increased. The steady-state intensities and intensity decays can be used to calculate the bimolecular quenching constant kq. This value can be interpreted by comparison with quenching of a fluorophore in solution without any steric barriers. […] This is the same structure of SPQ-C18 but with a shorter, three carbon propenyl chain. The unquenched lifetime (τ0) of P-MQB was 26 ns, and the Stern-Volmer constant K was 140 M^-1. […] Emission spectra and time-dependent decays were obtained (data not shown). Stern-Volmer plots were obtained in water and in a Stenfilcon A (AspireTM) contact lens by plotting the normalized intensities with respect to the added chloride concentrations.

[2] = cited from earlier work; for Kd: read-out: K (mM), binding constant
[3] = Stenfilcon A (Aspire™) contact lens

unquenched lifetime ([1]; in lenses) | SMILES | reduction of quenching constant, in lens versus SPQ-C3 in buffer [1] | k (bimolecular quenching constant) ([1]; Biofinity) | quenching constant K from lifetime measurement ([1]; Biofinity) | k (bimolecular quenching constant) ([1]; MyDay) | quenching constant K from lifetime measurement ([1]; MyDay) | bimolecular quenching constant [1, 3] | decrease in the collision rate versus SPQ-C3 in water [1, 3] | quenching of emission intensities ([1]; chloride near 120 mM, Biofinity and MyDay) | Lifetime (ns), cation-bound form ([2]; cation-bound form (in parentheses)) | Lifetime (ns), free form ([2]; free form) | Kd ([2]; listed as Na Green) | Kd ([2]; listed as Sodium Green) | Kd [2]
~18.5 ns | CCCCCCCCCCCCCCCCCC[n+]1cccc2cc(OC)ccc21 [SPQ-C18, N-Octadecyl-6-methoxyquinolinium bromide] | 10 fold | 0.41×10^9 m-1 sec-1 | 8.12 M⁻¹ | 0.37×10^9 m-1 sec-1 | 7.44 M⁻¹ | 1e+09 M⁻¹ s⁻¹ | 5.4 | about 50% | – | – | – | – | –
– | COc1cc(N2CCOCCOCCN(c3cc(OC)c(NC(=O)c4ccc(-c5c6cc(Cl)c(=O)cc-6oc6cc([O-])c(Cl)cc56)c(C(=O)[O-])c4)cc3OC)CCOCC2)c(OC)cc1NC(=O)c1ccc(-c2c3cc(Cl)c(=O)cc-3oc3cc([O-])c(Cl)cc23)c(C(=O)[O-])c1.C[N+](C)(C)C.C[N+](C)(C)C.C[N+](C)(C)C.C[N+](C)(C)C [SG] | – | – | – | – | – | – | – | – | 2.38 ns | 3.34 ns | 6 mM | ~5 mM | 6 to 10 mM

— US20220050096A1, “ANALYTE-SENSITIVE PROBES AND CONTACT LENS FOR DIAGNOSIS OF OCULAR PATHOLOGIES” (University Of Maryland, Baltimore, priority 2020, published 2022)
